From patent US11000033B2, “Ketone or oxime compound, and herbicide” (NISSAN CHEMICAL CORPORATION, priority 2014, dated 2021)

Tests used:
Type in all cases: in vivo
[1] = tested on: Echinochloa crus-galli var. crus-galli; experiment: Test Example 4: herbicidal effect by soil treatment (symbol H); conditions: 320 g/ha
Procedure, shortened: (§1)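 Seeds were sown in sterilized diluvial soil, covered with about 1.5 cm of soil, and the soil surface was sprayed with a water-diluted emulsion of the compound at a predetermined rate. Plants grew in a greenhouse at 25° C. to 30° C.; effects were scored visually 3 weeks after application.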

Setaria viridis = experiment: Test Example 5: herbicidal effect by foliage application, plastic box (symbol G); conditions: 320 g/ha, 3 weeks after application
Procedure, shortened: (§2)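 Greenhouse foliar test: seedlings at 14 days, grown 25° C. to 30° C. in sterilized diluvial soil; compound applied as an aqueous dilution of an emulsion; response read 3 weeks after spraying.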

Galium spurium = experiment: Test Example 4: herbicidal effect by soil treatment (symbol Q); conditions: 320 g/ha
Procedure, shortened: as §1

wheat = experiment: Test Example 5: effect on crop by foliage application, plastic box (symbol e); conditions: 320 g/ha, 3 weeks after application
Procedure, shortened: (§3)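 In a plastic box 7 cm deep filled with sterilized diluvial soil, seeds of crops and weeds such as Digitaria ciliaris, Avena fatua and Amaranthus retroflexus are sown in spots and covered with about 1.5 cm of soil before greenhouse growth at 25–30° C.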

Scirpus juncoides = experiment: Test Example 2: herbicidal activity, application during weed generation in submerged conditions (symbol B); conditions: Table 23; application herbicide amount 320 g/ha; grade 0-5 by criteria of Test Example 1
Procedure, shortened: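 Submerged alluvial soil (4 cm) sown with mixed seed; greenhouse 25–30° C. 1–2 leaf: diluted emulsion onto water surface, preset dose. Visual score, 3 wk.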

Lolium multiflorum Lam. [2] = experiment: Test Example 4: herbicidal effect by soil treatment (symbol K); conditions: 320 g/ha
Procedure, shortened: as §1

Cyperus difformis = experiment: Test Example 3: herbicidal effect by foliage application, Wagner pot (symbol E); conditions: application herbicide amount 320 g/ha
Procedure, shortened: (§4)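 Steps: fill pot with alluvial soil; add water to 0.1–0.5 cm depth; sow weed and rice seed; grow 14 days at 25–30 °C; spray diluted emulsion over the leaves; rate effect after 3 weeks.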

rice plant = experiment: Test Example 5: effect on crop by foliage application, plastic box (symbol b); conditions: 320 g/ha, 3 weeks after application
Procedure, shortened: as §3

Veronica persica = experiment: Test Example 5: herbicidal effect by foliage application, plastic box (symbol R); conditions: 320 g/ha, 3 weeks after application
Procedure, shortened: as §2

Stellaria media = experiment: Test Example 5: herbicidal effect by foliage application, plastic box (symbol P); conditions: 320 g/ha, 3 weeks after application
Procedure, shortened: as §2

[3] = tested on: Echinochloa crus-galli var. crus-galli; experiment: Test Example 3: herbicidal effect by foliage application, Wagner pot (symbol H); conditions: application herbicide amount 320 g/ha
Procedure, shortened: as §4

corn = experiment: Test Example 4: effect on crop by soil treatment (symbol c); conditions: 320 g/ha
Procedure, shortened: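 Soil-treatment setup: crop and weed seeds were spot-sown into sterilized diluvial soil, then buried beneath approximately 1.5 cm of it, and the boxes were housed in a 25–30° C. greenhouse.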

rice = experiment: Test Example 4: effect on crop by soil treatment (symbol b); conditions: 320 g/ha
Procedure, shortened: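 Diluvial soil (sterilized) in boxes; seeds placed spot-wise alongside weed species; ~1.5 cm covering soil. Greenhouse, 25–30° C.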

Alopecurus myosuroides = experiment: Test Example 5: herbicidal effect by foliage application, plastic box (symbol J); conditions: 320 g/ha, 3 weeks after application
Procedure, shortened: as §2

Avena fatua = experiment: Test Example 5: herbicidal effect by foliage application, plastic box (symbol I); conditions: 320 g/ha, 3 weeks after application
Procedure, shortened: as §2

Lolium multiflorum Lam. [4] = experiment: Test Example 5: herbicidal effect by foliage application, plastic box (symbol K); conditions: 320 g/ha, 3 weeks after application
Procedure, shortened: as §2

SMILES: CON=C(C)CC1CC(OC(=O)N2CCN(C)CC2)=C(c2c(C)cc(C)cc2C)C1=O (stereo not shown) [1-152]
- H: Echinochloa crus-galli var. crus-galli, herbicidal effect grade [1]: 0 (Herbicidal ratio of 5% or lower (almost no effect))
- G: Setaria viridis, herbicidal effect (criteria 0-5) (Setaria viridis): 5 (Herbicidal ratio of 90% or more (almost completely withered))
- Q: Galium spurium, herbicidal effect grade (Galium spurium): 0 (Herbicidal ratio of 5% or lower (almost no effect))
- e: wheat, effect on crop (criteria 0-5) (wheat): 3 (Herbicidal ratio of 40% or higher and lower than 70%)
- Herbicidal effect grade, B: Scirpus juncoides (Scirpus juncoides): 0 (Herbicidal ratio of 5% or lower (almost no effect))
- K: Lolium multiflorum Lam., herbicidal effect grade (Lolium multiflorum Lam. [2]): 2 (Herbicidal ratio of 20% or higher and lower than 40%)
- herbicidal effect on E, grade 0-5 (Cyperus difformis): 5 (Herbicidal ratio of 90% or more (almost completely withered))
- b: directly sowed rice plant, effect on crop (criteria 0-5) (rice plant): 5 (Herbicidal ratio of 90% or more (almost completely withered))
- R: Veronica persica, herbicidal effect (criteria 0-5) (Veronica persica): 0 (Herbicidal ratio of 5% or lower (almost no effect))
- P: Stellaria media, herbicidal effect (criteria 0-5) (Stellaria media): 0 (Herbicidal ratio of 5% or lower (almost no effect))
- herbicidal effect on H (Echinochloa crus-galli var. crus-galli), grade 0-5 [3]: 5 (Herbicidal ratio of 90% or more (almost completely withered))
- c: corn, effect grade on crop (corn): 0 (Herbicidal ratio of 5% or lower (almost no effect))
- b: directly sowed rice plant, effect grade on crop (rice): 0 (Herbicidal ratio of 5% or lower (almost no effect))
- J: Alopecurus myosuroides, herbicidal effect (criteria 0-5) (Alopecurus myosuroides): 5 (Herbicidal ratio of 90% or more (almost completely withered))
- I: Avena fatua, herbicidal effect (criteria 0-5) (Avena fatua): 4 (Herbicidal ratio of 70% or higher and lower than 90%)
- K: Lolium multiflorum Lam., herbicidal effect (criteria 0-5) (Lolium multiflorum Lam. [4]): 5 (Herbicidal ratio of 90% or more (almost completely withered))

SMILES: CON=C(C)CC1CC(OC(=O)c2c(Cl)nn(C)c2Cl)=C(c2c(C)cc(C)cc2C)C1=O (stereo not shown) [1-160]
- H: Echinochloa crus-galli var. crus-galli, herbicidal effect grade [1]: 5 (Herbicidal ratio of 90% or more (almost completely withered))
- G: Setaria viridis, herbicidal effect grade (Setaria viridis): 5 (Herbicidal ratio of 90% or more (almost completely withered))
- Q: Galium spurium, herbicidal effect grade (Galium spurium): 0 (Herbicidal ratio of 5% or lower (almost no effect))
- e: wheat, effect on crop grade (wheat): 5 (Herbicidal ratio of 90% or more (almost completely withered))
- Herbicidal effect grade, B: Scirpus juncoides (Scirpus juncoides): 4 (Herbicidal ratio of 70% or higher and lower than 90%)
- K: Lolium multiflorum Lam., herbicidal effect grade (Lolium multiflorum Lam. [2]): 5 (Herbicidal ratio of 90% or more (almost completely withered))
- herbicidal effect on E, grade 0-5 (Cyperus difformis): 5 (Herbicidal ratio of 90% or more (almost completely withered))
- b: directly sowed rice plant, effect on crop grade (rice plant): 5 (Herbicidal ratio of 90% or more (almost completely withered))
- R: Veronica persica, herbicidal effect grade (Veronica persica): 3 (Herbicidal ratio of 40% or higher and lower than 70%)
- P: Stellaria media, herbicidal effect grade (Stellaria media): 3 (Herbicidal ratio of 40% or higher and lower than 70%)
- herbicidal effect on H (Echinochloa crus-galli var. crus-galli), grade 0-5 [3]: 5 (Herbicidal ratio of 90% or more (almost completely withered))
- c: corn, effect grade on crop (corn): 0 (Herbicidal ratio of 5% or lower (almost no effect))
- b: directly sowed rice plant, effect grade on crop (rice): 5 (Herbicidal ratio of 90% or more (almost completely withered))
- J: Alopecurus myosuroides, herbicidal effect grade (Alopecurus myosuroides): 5 (Herbicidal ratio of 90% or more (almost completely withered))
- I: Avena fatua, herbicidal effect grade (Avena fatua): 5 (Herbicidal ratio of 90% or more (almost completely withered))
- K: Lolium multiflorum Lam., herbicidal effect grade (Lolium multiflorum Lam. [4]): 5 (Herbicidal ratio of 90% or more (almost completely withered))

SMILES: CON=C(C)CC1CC(OC(=O)c2ccccc2OC(F)(F)F)=C(c2c(C)cc(C)cc2C)C1=O (stereo not shown) [1-155]
- H: Echinochloa crus-galli var. crus-galli, herbicidal effect grade [1]: 5 (Herbicidal ratio of 90% or more (almost completely withered))
- G: Setaria viridis, herbicidal effect (criteria 0-5) (Setaria viridis): 5 (Herbicidal ratio of 90% or more (almost completely withered))
- Q: Galium spurium, herbicidal effect grade (Galium spurium): 0 (Herbicidal ratio of 5% or lower (almost no effect))
- e: wheat, effect on crop (criteria 0-5) (wheat): 5 (Herbicidal ratio of 90% or more (almost completely withered))
- Herbicidal effect grade, B: Scirpus juncoides (Scirpus juncoides): 5 (Herbicidal ratio of 90% or more (almost completely withered))
- K: Lolium multiflorum Lam., herbicidal effect grade (Lolium multiflorum Lam. [2]): 5 (Herbicidal ratio of 90% or more (almost completely withered))
- herbicidal effect on E, grade 0-5 (Cyperus difformis): 5 (Herbicidal ratio of 90% or more (almost completely withered))
- b: directly sowed rice plant, effect on crop (criteria 0-5) (rice plant): 5 (Herbicidal ratio of 90% or more (almost completely withered))
- R: Veronica persica, herbicidal effect (criteria 0-5) (Veronica persica): 3 (Herbicidal ratio of 40% or higher and lower than 70%)
- P: Stellaria media, herbicidal effect (criteria 0-5) (Stellaria media): 2 (Herbicidal ratio of 20% or higher and lower than 40%)
- herbicidal effect on H (Echinochloa crus-galli var. crus-galli), grade 0-5 [3]: 5 (Herbicidal ratio of 90% or more (almost completely withered))
- c: corn, effect grade on crop (corn): 3 (Herbicidal ratio of 40% or higher and lower than 70%)
- b: directly sowed rice plant, effect grade on crop (rice): 5 (Herbicidal ratio of 90% or more (almost completely withered))
- J: Alopecurus myosuroides, herbicidal effect (criteria 0-5) (Alopecurus myosuroides): 5 (Herbicidal ratio of 90% or more (almost completely withered))
- I: Avena fatua, herbicidal effect (criteria 0-5) (Avena fatua): 5 (Herbicidal ratio of 90% or more (almost completely withered))
- K: Lolium multiflorum Lam., herbicidal effect (criteria 0-5) (Lolium multiflorum Lam. [4]): 5 (Herbicidal ratio of 90% or more (almost completely withered))

SMILES: C=CCN(CC=C)C(=O)OC1=C(c2c(C)cc(C)cc2C)C(=O)C(CC(C)=NOC)C1 (stereo not shown) [1-153]
- H: Echinochloa crus-galli var. crus-galli, herbicidal effect grade [1]: 0 (Herbicidal ratio of 5% or lower (almost no effect))
- G: Setaria viridis, herbicidal effect (criteria 0-5) (Setaria viridis): 5 (Herbicidal ratio of 90% or more (almost completely withered))
- Q: Galium spurium, herbicidal effect grade (Galium spurium): 0 (Herbicidal ratio of 5% or lower (almost no effect))
- e: wheat, effect on crop (criteria 0-5) (wheat): 5 (Herbicidal ratio of 90% or more (almost completely withered))
- Herbicidal effect grade, B: Scirpus juncoides (Scirpus juncoides): 1 (Herbicidal ratio of 5% or higher and lower than 20%)
- K: Lolium multiflorum Lam., herbicidal effect grade (Lolium multiflorum Lam. [2]): 4 (Herbicidal ratio of 70% or higher and lower than 90%)
- herbicidal effect on E, grade 0-5 (Cyperus difformis): 4 (Herbicidal ratio of 70% or higher and lower than 90%)
- b: directly sowed rice plant, effect on crop (criteria 0-5) (rice plant): 5 (Herbicidal ratio of 90% or more (almost completely withered))
- R: Veronica persica, herbicidal effect (criteria 0-5) (Veronica persica): 0 (Herbicidal ratio of 5% or lower (almost no effect))
- P: Stellaria media, herbicidal effect (criteria 0-5) (Stellaria media): 0 (Herbicidal ratio of 5% or lower (almost no effect))
- herbicidal effect on H (Echinochloa crus-galli var. crus-galli), grade 0-5 [3]: 5 (Herbicidal ratio of 90% or more (almost completely withered))
- c: corn, effect grade on crop (corn): 0 (Herbicidal ratio of 5% or lower (almost no effect))
- b: directly sowed rice plant, effect grade on crop (rice): 1 (Herbicidal ratio of 5% or higher and lower than 20%)
- J: Alopecurus myosuroides, herbicidal effect (criteria 0-5) (Alopecurus myosuroides): 5 (Herbicidal ratio of 90% or more (almost completely withered))
- I: Avena fatua, herbicidal effect (criteria 0-5) (Avena fatua): 5 (Herbicidal ratio of 90% or more (almost completely withered))
- K: Lolium multiflorum Lam., herbicidal effect (criteria 0-5) (Lolium multiflorum Lam. [4]): 5 (Herbicidal ratio of 90% or more (almost completely withered))
